Broadly, the EC50 is the concentration at which the effect is half-maximal.

The test system of data set [1] is HepG2. Briefly: Upregulation of SREBP-1 gene expression in human HepG2 cells at 50 to 100 uM by qPCR analysis relative to control relative to control. The data set is classed as ADME, cell-based. Particulars: hepg2, 100 µM. Background: Quantitative PCR measures a nucleic acid by following its amplification.
For data set [2], the system named is HepG2. Briefly: Cytotoxicity against human HepG2 cells after 48 hrs by MTT assay. The data set is classed as cell-based. The conditions noted are these: hepg2, 48 h. Background: Tetrazolium dyes change colour on reduction, which living cells bring about.
The target of data set [3] is T1, Oxysterols receptor LXR-alpha (Homo sapiens) (UniProt Q13133).
T1 sequence (whole entry): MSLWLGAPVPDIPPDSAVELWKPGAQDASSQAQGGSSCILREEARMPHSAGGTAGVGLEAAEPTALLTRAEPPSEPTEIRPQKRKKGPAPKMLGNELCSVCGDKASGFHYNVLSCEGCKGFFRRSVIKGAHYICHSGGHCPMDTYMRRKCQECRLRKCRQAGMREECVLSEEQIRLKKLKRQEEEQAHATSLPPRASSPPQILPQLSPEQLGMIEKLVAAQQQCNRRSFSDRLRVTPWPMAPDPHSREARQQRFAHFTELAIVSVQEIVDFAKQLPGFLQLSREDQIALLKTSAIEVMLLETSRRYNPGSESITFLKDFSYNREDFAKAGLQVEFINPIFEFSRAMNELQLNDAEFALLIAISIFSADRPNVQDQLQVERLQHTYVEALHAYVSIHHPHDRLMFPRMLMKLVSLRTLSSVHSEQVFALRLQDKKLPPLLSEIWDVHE
Briefly: (§1) Agonist activity at human LXR-alpha assessed as increase in recruitment of Trap 220/Drip2 coactivator peptide by TR-FRET assay. The class given is functional. In general terms: TR-FRET usually uses a lanthanide donor and a delayed reading to cut background.

For data set [4], the target named is T2, Oxysterols receptor LXR-alpha (Homo sapiens, UniProt Q13133).
T2 sequence (Q13133 whole entry): T1 sequence (whole entry)
Described as §1. The class given is functional.

Data set [5] addresses Liver X receptor (Homo sapiens) (UniProt Q13133+P55055). Put plainly: Agonist activity at LXR in human THP1 cells assessed as induction of ABCA1 mRNA expression at 100 uM after 48 hrs by qPCR analysis relative to control. Particulars: THP-1. The data set is classed as functional, cell-based.
Data set [6] concerns THP-1. Put plainly: Cytotoxicity against human THP1 cells after 48 hrs by MTT assay. The data set is classed as cell-based. The conditions noted are these: thp-1, 48 h.
Data set [7] has as its target T1, Oxysterols receptor LXR-alpha (Homo sapiens). Briefly: Agonist activity at LXR-alpha in human Caco2 cells assessed as reduction in cellular cholesterol level. Particulars: Caco-2. The class given is functional, cell-based.

Liver X receptor (Homo sapiens), sequence (P55055 whole entry, looked up, one chain of several): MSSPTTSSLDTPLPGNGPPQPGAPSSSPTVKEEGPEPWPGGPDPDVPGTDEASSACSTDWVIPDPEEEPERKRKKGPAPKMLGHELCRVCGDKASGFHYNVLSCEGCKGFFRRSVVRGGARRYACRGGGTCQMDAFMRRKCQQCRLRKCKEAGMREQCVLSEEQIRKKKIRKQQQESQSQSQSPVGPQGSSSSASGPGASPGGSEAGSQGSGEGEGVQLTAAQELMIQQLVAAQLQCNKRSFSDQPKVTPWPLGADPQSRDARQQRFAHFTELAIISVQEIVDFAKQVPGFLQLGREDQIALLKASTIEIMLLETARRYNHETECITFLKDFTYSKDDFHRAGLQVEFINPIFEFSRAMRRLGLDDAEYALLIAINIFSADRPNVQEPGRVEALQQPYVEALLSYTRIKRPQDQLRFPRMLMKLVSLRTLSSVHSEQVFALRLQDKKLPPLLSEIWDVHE

On to `CCOC(=O)c1c(O)cc(O)cc1O`, for which the Activity result in data set [1] was “Non-toxic”; in data set [2], “Non-toxic”; in data set [3] it was “Dose-dependent effect”; in data set [6] it was “Non-toxic”; in data set [7] it was “Dose-dependent effect”. In data set [4], the EC50 came to 1500 nM. Also, in data set [5], the fold change (FC) amounted to 7.4.
